Results taken from ChEMBL document CHEMBL4346757, “Synthesis and biological evaluation of 7-methoxy-1-(3,4,5-trimethoxyphenyl)-4,5-dihydro-2H-benzo[e]indazoles as new colchicine site inhibitors” (Bioorg Med Chem Lett, 2019).

Experiments:
Assay type in all cases: functional
U-251 = assay: Growth inhibition of human U251 cells assessed as cell growth at 0.01 uM after 48 hrs by SRB assay relative to control; conditions: U-251, 48 h, read-out: Activity
MDA-MB-435 [1] = assay: Growth inhibition of human MDA-MB-435 cells assessed as cell growth at 0.01 uM after 48 hrs by SRB assay relative to control; conditions: MDA-MB-435, 48 h, read-out: Activity
CAKI-1 [2] = assay: Growth inhibition of human Caki1 cells assessed as cell growth at 0.01 uM after 48 hrs by SRB assay relative to control; conditions: CAKI-1, 48 h, read-out: Activity
MCF7 = assay: Growth inhibition of human MCF7 cells assessed as cell growth at 0.01 uM after 48 hrs by SRB assay relative to control; conditions: MCF7, 48 h, read-out: Activity
BT-549 = assay: Growth inhibition of human BT549 cells assessed as cell growth at 0.01 uM after 48 hrs by SRB assay relative to control; conditions: BT-549, 48 h, read-out: Activity
CCRF-CEM = assay: Growth inhibition of human CCRF-CEM cells assessed as cell growth at 0.1 uM after 48 hrs by SRB assay relative to control; conditions: read-out: Activity
SF-268 = assay: Growth inhibition of human SF268 cells assessed as cell growth at 0.1 uM after 48 hrs by SRB assay relative to control; conditions: SF-268, 48 h, read-out: Activity
SK-MEL-5 [3] = assay: Growth inhibition of human SK-MEL-5 cells assessed as cell growth at 0.1 uM after 48 hrs by SRB assay relative to control; conditions: SK-MEL-5, 48 h, read-out: Activity
UACC-62 = assay: Growth inhibition of human UACC62 cells assessed as cell growth at 0.1 uM after 48 hrs by SRB assay relative to control; conditions: UACC-62, 48 h, read-out: Activity
NCI/ADR-RES [4] = assay: Growth inhibition of human NCI-ADR-RES cells assessed as cell growth at 0.1 uM after 48 hrs by SRB assay relative to control; conditions: read-out: Activity
T47D = assay: Growth inhibition of human T47D cells assessed as cell growth at 0.1 uM after 48 hrs by SRB assay relative to control; conditions: read-out: Activity
NCI-H522 = assay: Growth inhibition of human NCI-H522 cells assessed as cell growth at 1 uM after 48 hrs by SRB assay relative to control; conditions: NCI-H522, 48 h, read-out: Activity
MDA-MB-435 [5] = assay: Growth inhibition of human MDA-MB-435 cells assessed as cell growth at 1 uM after 48 hrs by SRB assay relative to control; conditions: MDA-MB-435, 48 h, read-out: Activity
SK-MEL-5 [6] = assay: Growth inhibition of human SK-MEL-5 cells assessed as cell growth at 1 uM after 48 hrs by SRB assay relative to control; conditions: SK-MEL-5, 48 h, read-out: Activity
NCI/ADR-RES [7] = assay: Growth inhibition of human NCI-ADR-RES cells assessed as cell growth at 1 uM after 48 hrs by SRB assay relative to control; conditions: read-out: Activity
UO-31 = assay: Growth inhibition of human UO31 cells assessed as cell growth at 1 uM after 48 hrs by SRB assay relative to control; conditions: UO-31, 48 h, read-out: Activity
MDA-MB-231 = assay: Growth inhibition of human MDA-MB-231/ATCC cells assessed as cell growth at 1 uM after 48 hrs by SRB assay relative to control; conditions: MDA-MB-231, 48 h, read-out: Activity
COLO 205 = assay: Growth inhibition of human COLO205 cells assessed as cell growth at 10 uM after 48 hrs by SRB assay relative to control; conditions: COLO 205, 48 h, read-out: Activity
SW-620 = assay: Growth inhibition of human SW620 cells assessed as cell growth at 10 uM after 48 hrs by SRB assay relative to control; conditions: SW-620, 48 h, read-out: Activity
LOX IMVI = assay: Growth inhibition of human LOXIMVI cells assessed as cell growth at 10 uM after 48 hrs by SRB assay relative to control; conditions: read-out: Activity
DU-145 = assay: Growth inhibition of human DU145 cells assessed as cell growth at 10 uM after 48 hrs by SRB assay relative to control; conditions: DU-145, 48 h, read-out: Activity
SR [8] = assay: Growth inhibition of human SR cells assessed as cell growth at 100 uM after 48 hrs by SRB assay relative to control; conditions: read-out: Activity
SNB-19 = assay: Growth inhibition of human SNB19 cells assessed as cell growth at 100 uM after 48 hrs by SRB assay relative to control; conditions: SNB-19, 48 h, read-out: Activity
OVCAR-5 = assay: Growth inhibition of human OVCAR5 cells assessed as cell growth at 100 uM after 48 hrs by SRB assay relative to control; conditions: OVCAR-5, 48 h, read-out: Activity
RXF 393 [9] = assay: Growth inhibition of human RXF393 cells assessed as cell growth at 100 uM after 48 hrs by SRB assay relative to control; conditions: RXF 393, 48 h, read-out: Activity
K562 = assay: Cytotoxicity against human K562 cells assessed as growth inhibition after 48 hrs by SRB assay; conditions: K562, 48 h
SR [10] = assay: Cytotoxicity against human SR cells assessed as growth inhibition after 48 hrs by SRB assay
HOP-62 = assay: Cytotoxicity against human HOP62 cells assessed as growth inhibition after 48 hrs by SRB assay; conditions: HOP-62, 48 h
UACC-257 = assay: Cytotoxicity against human UACC257 cells assessed as growth inhibition after 48 hrs by SRB assay; conditions: UACC-257, 48 h
CAKI-1 [11] = assay: Cytotoxicity against human Caki1 cells assessed as growth inhibition after 48 hrs by SRB assay; conditions: CAKI-1, 48 h
RXF 393 [12] = assay: Cytotoxicity against human RXF393 cells assessed as growth inhibition after 48 hrs by SRB assay; conditions: RXF 393, 48 h
[13] = read-out: LC50 (the source's name)
[14] = read-out: pLC50 (the source's name) (converted)

COc1ccc2c(c1)CCc1n[nH]c(-c3cc(OC)c(OC)c(OC)c3)c1-2
growth at 0.01 µM (U-251): 14% | growth at 0.01 µM (MDA-MB-435 [1]): -45% | growth at 0.01 µM (CAKI-1 [2]): 30% | growth at 0.01 µM (MCF7): 17% | growth at 0.01 µM (BT-549): 4% | growth at 0.1 µM (CCRF-CEM): 42% | growth at 0.1 µM (SF-268): 30% | growth at 0.1 µM (SK-MEL-5 [3]): -26% | growth at 0.1 µM (UACC-62): 35% | growth at 0.1 µM (NCI/ADR-RES [4]): -21% | growth at 0.1 µM (T47D): 74% | growth at 1 µM (NCI-H522): -16% | growth at 1 µM (MDA-MB-435 [5]): -35% | growth at 1 µM (SK-MEL-5 [6]): -24% | growth at 1 µM (NCI/ADR-RES [7]): -9% | growth at 1 µM (UO-31): 28% | growth at 1 µM (MDA-MB-231): 29% | growth at 10 µM (COLO 205): -61% | growth at 10 µM (SW-620): 14% | growth at 10 µM (LOX IMVI): 7% | growth at 10 µM (DU-145): 8% | growth at 100 µM (SR [8]): -15% | growth at 100 µM (SNB-19): -12% | growth at 100 µM (OVCAR-5): -22% | growth at 100 µM (RXF 393 [9]): -68% | GI50 (K562; read-out: GI50): < 0.01 µM | CC50 (K562; [13]): > 100 µM | TGI (K562; read-out: TGI): > 100 µM | GI50 (K562; read-out: pGI50 (converted)): < 0.01 µM | CC50 (K562; [14]): > 100 µM | TGI (K562; read-out: pTGI): > 100 µM | GI50 (SR [10]; read-out: GI50): < 0.01 µM | CC50 (SR [10]; [13]): > 100 µM | TGI (SR [10]; read-out: TGI): 22.9 µM | GI50 (SR [10]; read-out: pGI50 (converted)): < 0.01 µM | CC50 (SR [10]; [14]): > 100 µM | TGI (SR [10]; read-out: pTGI (converted)): 22.9 µM | GI50 (HOP-62; read-out: GI50): < 0.01 µM | CC50 (HOP-62; [13]): 46.7 µM | TGI (HOP-62; read-out: TGI): 10.8 µM | GI50 (HOP-62; read-out: pGI50 (converted)): < 0.01 µM | CC50 (HOP-62; [14]): 46.8 µM | TGI (HOP-62; read-out: pTGI (converted)): 10.7 µM | CC50 (UACC-257; [13]): > 100 µM | TGI (UACC-257; read-out: TGI): 34.2 µM | CC50 (UACC-257; [14]): > 100 µM | TGI (UACC-257; read-out: pTGI (converted)): 33.9 µM | GI50 (CAKI-1 [11]; read-out: GI50): < 0.01 µM | LC50 (concentration killing 50% of cells) (CAKI-1 [11]; read-out: LC50): > 100 µM | TGI (CAKI-1 [11]; read-out: TGI): 24.8 µM | GI50 (CAKI-1 [11]; read-out: pGI50 (converted)): < 0.01 µM | LC50 (concentration killing 50% of cells) (CAKI-1 [11]; read-out: pLC50 (converted)): > 100 µM | TGI (CAKI-1 [11]; read-out: pTGI (converted)): 24.5 µM | GI50 (RXF 393 [12]; read-out: GI50): < 0.01 µM | CC50 (RXF 393 [12]; [13]): 51.3 µM | GI50 (RXF 393 [12]; read-out: pGI50 (converted)): < 0.01 µM | CC50 (RXF 393 [12]; [14]): 51.3 µM
